What was measured:
hSTK36 = biological target: T1, hSTK36 (Homo sapiens, UniProt Q9NRP7); assay: KINOMEscan; format: binding
T1 construct: purchased DiscoverX (KINOMEscan platform)

hKIT(V559D,T670I) = biological target: T2, hKIT(V559D,T670I) (Homo sapiens, UniProt P10721, T670I/V559D); assay: KINOMEscan; format: binding
T2 construct: purchased DiscoverX (KINOMEscan platform)

hBTK = biological target: T3, hBTK (Homo sapiens, UniProt Q06187); assay: KINOMEscan; format: binding
T3 construct: purchased DiscoverX

hROCK2 = biological target: T4, hROCK2 (Homo sapiens, UniProt O75116); assay: KINOMEscan; format: binding
T4 construct: purchased DiscoverX (KINOMEscan platform)

hVDR = biological target: T5, hVDR (Homo sapiens, UniProt P11473); assay: Nuclear hormone receptor assay (Eurofins-CEREP); details: read-out: Relative IC50
T5 construct: Eurofins-CEREP

hEGFR(L861Q) = biological target: T6, hEGFR(L861Q) (Homo sapiens, UniProt P00533, L861Q); assay: KINOMEscan; format: binding
T6 construct: purchased DiscoverX

hHIPK1 = biological target: T7, hHIPK1 (Homo sapiens, UniProt Q86Z02); assay: KINOMEscan; format: binding
T7 construct: purchased DiscoverX

hFLT3(N841I) = biological target: T8, hFLT3(N841I) (Homo sapiens, UniProt P36888, N841I); assay: KINOMEscan; format: binding
T8 construct: purchased DiscoverX

hMEK5 = biological target: T9, hMEK5 (Homo sapiens, UniProt Q13163); assay: KINOMEscan; format: binding
T9 construct: purchased DiscoverX

hCDKL2 = biological target: T10, hCDKL2 (Homo sapiens, UniProt Q92772); assay: KINOMEscan; format: binding
T10 construct: purchased DiscoverX

hADRβ2 = hADRβ2 (Homo sapiens, UniProt P07550); assay: cAMP Potentiation (Eurofins-CEREP); details: @ 10 μM
hMAPKAPK5 = biological target: T11, hMAPKAPK5 (Homo sapiens, UniProt Q8IW41); assay: KINOMEscan; format: binding
T11 construct: purchased DiscoverX

hCLK4 = biological target: T12, hCLK4 (Homo sapiens, UniProt Q9HAZ1); assay: KINOMEscan; format: binding
T12 construct: purchased DiscoverX (KINOMEscan platform)

hMLCK = biological target: T13, hMLCK (Homo sapiens, UniProt Q32MK0); assay: KINOMEscan; format: binding
T13 construct: purchased DiscoverX

hMEK2 = biological target: T14, hMEK2 (Homo sapiens, UniProt P36507); assay: KINOMEscan; format: binding
T14 construct: purchased DiscoverX

hHIPK3 = biological target: T15, hHIPK3 (Homo sapiens, UniProt Q9H422); assay: KINOMEscan; format: binding
T15 construct: purchased DiscoverX

h5HT2B = h5HT2B (Homo sapiens, UniProt P41595); assay: Calcium Mobilization Antagonist (Eurofins-CEREP); details: read-out: % Effect, Inhibition
hRARα = biological target: T16, hRARα (Homo sapiens, UniProt P10276); assay: Nuclear hormone receptor assay (Eurofins-CEREP); details: read-out: Relative IC50
T16 construct: Eurofins-CEREP

[1] = test system: lysine methylation of histone H3 or H4; assay: Mass spectrometry proteomics of cell-derived histones, SMYD2-overexpressing KYSE-150 cells; format: cell-based, human; details: 5 μM LLY-507 versus untreated cells
Method: Acid-extracted histone samples were chemically derivatized using propionic anhydride and digested with trypsin for 6 h at 37 °C. The digested peptides were treated with an additional round of propionylation and desalted using a C18 extracted mini disk (Empore 3M). Approximately 1 μg of each sample was loaded via an autosampler (Eksigent NanoLC.Ultra 2D Plus) onto a homemade precolumn (3-μm particle size, 120-Å pore size) at a flow rate of 2 μl/min. Peptides were chromatographically resolved via a 75-μm reversed phase analytical column packed with C18-AQ resin (1.9-μm particle size, 120-Å pore size) using a 77-min 2–98% solvent B gradient (solvent A, 0.1% formic acid; solvent B, 100% acetonitrile) at a flow rate of 250 nl/min. The electrosprayed peptides were detected by an Orbitrap Elite^TM mass spectrometer (Thermo Fisher Scientific) with a resolution of 120,000 for full MS spectrum followed by MS/MS spectra obtained in the ion trap. The relative abundance of each modification, expressed as a percentage on a histone peptide sequence, was quantified by analyzing its MS and MS/MS spectra via Epiquant, an in-house software.

hSIK2 = biological target: T17, hSIK2 (Homo sapiens, UniProt Q9H0K1); assay: KINOMEscan; format: binding
T17 construct: purchased DiscoverX (KINOMEscan platform)

hERK8 = biological target: T18, hERK8 (Homo sapiens, UniProt Q8TD08); assay: KINOMEscan; format: binding
T18 construct: purchased DiscoverX

hFLT3(K663Q) = biological target: T19, hFLT3(K663Q) (Homo sapiens, UniProt P36888, K663Q); assay: KINOMEscan; format: binding
T19 construct: purchased DiscoverX

hSIK = biological target: T20, hSIK (Homo sapiens, UniProt P57059); assay: KINOMEscan; format: binding
T20 construct: purchased DiscoverX (KINOMEscan platform)

hABL1(pM351T) = biological target: T21, hABL1(pM351T) (Homo sapiens, UniProt P00519, M351T); assay: KINOMEscan; format: binding
T21 construct: purchased DiscoverX (KINOMEscan platform)

hBUB1 = biological target: T22, hBUB1 (Homo sapiens, UniProt O43683); assay: KINOMEscan; format: binding
T22 construct: purchased DiscoverX

hTNNI3K = biological target: T23, hTNNI3K (Homo sapiens, UniProt Q59H18); assay: KINOMEscan; format: binding
T23 construct: purchased DiscoverX

hLCK = biological target: T24, hLCK (Homo sapiens, UniProt P06239); assay: KINOMEscan; format: binding
T24 construct: purchased DiscoverX (KINOMEscan platform)

hMERTK = biological target: T25, hMERTK (Homo sapiens, UniProt Q12866); assay: KINOMEscan; format: binding
T25 construct: purchased DiscoverX

hFGFR2 = biological target: T26, hFGFR2 (Homo sapiens, UniProt P21802); assay: KINOMEscan; format: binding
T26 construct: purchased DiscoverX

hKIT(V559D) = biological target: T27, hKIT(V559D) (Homo sapiens, UniProt P10721, V559D); assay: KINOMEscan; format: binding
T27 construct: purchased DiscoverX (KINOMEscan platform)

hMEK4 = biological target: T28, hMEK4 (Homo sapiens, UniProt P45985); assay: KINOMEscan; format: binding
T28 construct: purchased DiscoverX

hBMPR1B = biological target: T29, hBMPR1B (Homo sapiens, UniProt O00238); assay: KINOMEscan; format: binding
T29 construct: purchased DiscoverX

hJAK3(JH1Dom.-catalytic) = biological target: T30, hJAK3(JH1Dom.-catalytic) (Homo sapiens, UniProt P52333); assay: KINOMEscan; format: binding
T30 construct: hJAK3(JH1Dom.-catalytic); purchased DiscoverX (KINOMEscan panel)

hD2L = hD2L (Homo sapiens, UniProt P14416); assay: cAMP Agonist (Eurofins-CEREP); details: @ 10 μM
hSTK39 = biological target: T31, hSTK39 (Homo sapiens, UniProt Q9UEW8); assay: KINOMEscan; format: binding
T31 construct: purchased DiscoverX (KINOMEscan platform)

T5 sequence (P11473 whole entry): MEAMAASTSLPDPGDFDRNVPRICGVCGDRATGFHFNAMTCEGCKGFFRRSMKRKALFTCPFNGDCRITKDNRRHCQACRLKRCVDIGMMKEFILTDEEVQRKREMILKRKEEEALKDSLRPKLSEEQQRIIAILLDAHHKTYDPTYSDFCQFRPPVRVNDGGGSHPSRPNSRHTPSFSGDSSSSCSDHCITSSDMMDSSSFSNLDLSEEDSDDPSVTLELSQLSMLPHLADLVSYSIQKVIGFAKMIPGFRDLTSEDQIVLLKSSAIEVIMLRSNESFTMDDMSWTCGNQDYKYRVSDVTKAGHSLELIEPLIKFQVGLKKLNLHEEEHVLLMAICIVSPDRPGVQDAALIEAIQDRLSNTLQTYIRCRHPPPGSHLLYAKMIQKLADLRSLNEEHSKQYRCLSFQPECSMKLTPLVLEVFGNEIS
Sequence of hD2L (P14416 whole entry): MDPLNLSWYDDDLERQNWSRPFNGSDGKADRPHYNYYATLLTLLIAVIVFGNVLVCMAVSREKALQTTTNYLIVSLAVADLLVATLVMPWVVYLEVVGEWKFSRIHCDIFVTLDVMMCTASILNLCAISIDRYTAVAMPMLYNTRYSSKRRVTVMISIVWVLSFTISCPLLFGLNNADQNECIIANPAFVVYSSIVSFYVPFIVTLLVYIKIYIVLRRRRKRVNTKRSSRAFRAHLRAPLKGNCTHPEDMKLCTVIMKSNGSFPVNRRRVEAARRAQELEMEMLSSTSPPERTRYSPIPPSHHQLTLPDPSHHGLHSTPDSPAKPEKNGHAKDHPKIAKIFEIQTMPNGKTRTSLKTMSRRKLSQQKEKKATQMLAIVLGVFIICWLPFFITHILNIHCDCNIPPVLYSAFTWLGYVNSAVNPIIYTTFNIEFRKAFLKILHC
T22 sequence (O43683 whole entry): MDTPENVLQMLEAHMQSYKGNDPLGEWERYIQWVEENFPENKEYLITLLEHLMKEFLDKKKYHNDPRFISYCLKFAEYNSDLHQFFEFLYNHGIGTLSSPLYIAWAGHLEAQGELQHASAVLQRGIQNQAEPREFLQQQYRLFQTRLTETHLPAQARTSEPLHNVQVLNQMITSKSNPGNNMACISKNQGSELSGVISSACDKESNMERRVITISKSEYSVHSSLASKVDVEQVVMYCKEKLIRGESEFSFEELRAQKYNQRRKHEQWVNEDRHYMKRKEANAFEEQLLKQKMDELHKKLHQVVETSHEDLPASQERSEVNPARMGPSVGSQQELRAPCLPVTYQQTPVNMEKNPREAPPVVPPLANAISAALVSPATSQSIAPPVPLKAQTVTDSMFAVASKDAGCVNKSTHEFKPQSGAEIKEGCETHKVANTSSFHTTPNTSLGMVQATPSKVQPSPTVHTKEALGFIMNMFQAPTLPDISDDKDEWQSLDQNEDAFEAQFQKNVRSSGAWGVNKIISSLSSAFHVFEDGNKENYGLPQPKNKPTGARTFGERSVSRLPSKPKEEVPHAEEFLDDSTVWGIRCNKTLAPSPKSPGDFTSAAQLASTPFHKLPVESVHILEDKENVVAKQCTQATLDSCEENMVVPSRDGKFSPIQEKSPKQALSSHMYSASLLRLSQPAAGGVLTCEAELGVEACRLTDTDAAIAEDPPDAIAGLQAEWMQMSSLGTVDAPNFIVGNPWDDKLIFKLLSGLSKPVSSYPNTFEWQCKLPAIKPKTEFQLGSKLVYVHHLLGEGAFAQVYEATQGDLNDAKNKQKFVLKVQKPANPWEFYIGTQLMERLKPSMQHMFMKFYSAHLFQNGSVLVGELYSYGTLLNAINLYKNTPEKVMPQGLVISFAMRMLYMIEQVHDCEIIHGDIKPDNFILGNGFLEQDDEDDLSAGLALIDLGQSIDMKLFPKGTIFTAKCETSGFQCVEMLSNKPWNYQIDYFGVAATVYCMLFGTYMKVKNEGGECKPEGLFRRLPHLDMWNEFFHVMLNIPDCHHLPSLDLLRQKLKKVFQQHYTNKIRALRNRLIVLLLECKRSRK
T7 sequence (Q86Z02 whole entry): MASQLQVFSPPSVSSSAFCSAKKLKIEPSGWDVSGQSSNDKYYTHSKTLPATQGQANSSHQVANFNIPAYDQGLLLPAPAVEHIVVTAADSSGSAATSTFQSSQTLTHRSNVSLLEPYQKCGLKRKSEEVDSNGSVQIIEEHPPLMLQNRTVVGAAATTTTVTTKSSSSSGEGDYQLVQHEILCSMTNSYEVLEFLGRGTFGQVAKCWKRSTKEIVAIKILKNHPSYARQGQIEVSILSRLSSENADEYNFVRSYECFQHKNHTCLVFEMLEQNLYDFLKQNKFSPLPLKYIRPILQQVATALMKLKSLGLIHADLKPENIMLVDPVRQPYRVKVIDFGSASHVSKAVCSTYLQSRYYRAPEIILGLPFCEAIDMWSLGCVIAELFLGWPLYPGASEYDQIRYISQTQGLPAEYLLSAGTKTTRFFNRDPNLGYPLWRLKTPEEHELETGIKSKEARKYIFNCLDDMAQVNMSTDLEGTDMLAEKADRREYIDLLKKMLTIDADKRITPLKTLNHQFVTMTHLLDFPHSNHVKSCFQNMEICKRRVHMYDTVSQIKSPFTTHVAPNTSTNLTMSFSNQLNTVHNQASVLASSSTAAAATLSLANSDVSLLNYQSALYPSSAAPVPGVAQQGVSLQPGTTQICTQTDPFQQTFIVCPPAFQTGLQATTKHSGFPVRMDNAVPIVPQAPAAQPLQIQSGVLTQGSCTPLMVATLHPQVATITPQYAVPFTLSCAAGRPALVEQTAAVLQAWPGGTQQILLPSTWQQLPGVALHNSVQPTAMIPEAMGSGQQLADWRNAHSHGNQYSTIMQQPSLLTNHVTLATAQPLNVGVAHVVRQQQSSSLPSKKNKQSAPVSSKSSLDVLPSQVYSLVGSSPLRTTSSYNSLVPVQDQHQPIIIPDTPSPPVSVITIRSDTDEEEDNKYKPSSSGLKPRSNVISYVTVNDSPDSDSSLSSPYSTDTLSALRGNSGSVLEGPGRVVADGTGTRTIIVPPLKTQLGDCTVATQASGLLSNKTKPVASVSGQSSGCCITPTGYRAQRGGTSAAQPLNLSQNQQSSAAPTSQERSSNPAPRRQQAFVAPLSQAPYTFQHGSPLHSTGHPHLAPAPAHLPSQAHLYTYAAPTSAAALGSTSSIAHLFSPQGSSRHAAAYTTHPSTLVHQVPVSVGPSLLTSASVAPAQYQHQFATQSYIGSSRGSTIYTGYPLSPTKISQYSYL
T6 sequence (P00533 25-1210 L861Q): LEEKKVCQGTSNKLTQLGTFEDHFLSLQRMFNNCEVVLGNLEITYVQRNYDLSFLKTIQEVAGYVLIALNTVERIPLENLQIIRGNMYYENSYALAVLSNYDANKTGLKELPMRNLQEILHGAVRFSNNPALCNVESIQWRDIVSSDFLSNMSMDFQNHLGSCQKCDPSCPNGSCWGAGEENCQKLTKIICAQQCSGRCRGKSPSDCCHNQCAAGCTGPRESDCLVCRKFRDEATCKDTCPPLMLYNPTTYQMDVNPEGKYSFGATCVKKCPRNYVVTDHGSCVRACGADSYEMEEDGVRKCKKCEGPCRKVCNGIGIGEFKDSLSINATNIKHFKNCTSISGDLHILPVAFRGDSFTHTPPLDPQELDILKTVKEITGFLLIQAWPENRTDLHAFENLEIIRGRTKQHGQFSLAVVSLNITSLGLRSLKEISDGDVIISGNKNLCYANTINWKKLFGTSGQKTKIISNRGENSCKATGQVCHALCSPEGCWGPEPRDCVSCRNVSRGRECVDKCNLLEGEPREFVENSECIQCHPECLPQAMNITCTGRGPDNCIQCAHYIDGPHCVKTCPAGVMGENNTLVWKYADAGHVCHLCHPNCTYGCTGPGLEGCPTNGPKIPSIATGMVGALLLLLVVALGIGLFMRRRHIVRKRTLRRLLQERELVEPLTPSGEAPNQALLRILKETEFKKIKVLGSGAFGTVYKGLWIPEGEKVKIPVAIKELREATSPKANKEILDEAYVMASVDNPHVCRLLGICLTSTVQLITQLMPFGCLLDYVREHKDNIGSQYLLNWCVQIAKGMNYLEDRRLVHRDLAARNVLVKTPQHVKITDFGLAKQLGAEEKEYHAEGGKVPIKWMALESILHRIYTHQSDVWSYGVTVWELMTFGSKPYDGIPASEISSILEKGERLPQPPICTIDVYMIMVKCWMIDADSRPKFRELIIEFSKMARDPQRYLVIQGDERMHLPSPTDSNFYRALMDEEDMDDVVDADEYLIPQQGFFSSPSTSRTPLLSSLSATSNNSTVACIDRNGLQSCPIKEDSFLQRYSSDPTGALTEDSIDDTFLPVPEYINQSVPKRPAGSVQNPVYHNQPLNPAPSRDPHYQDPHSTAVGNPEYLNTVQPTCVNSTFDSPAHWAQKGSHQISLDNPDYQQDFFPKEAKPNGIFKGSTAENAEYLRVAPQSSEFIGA
T9 sequence (Q13163 whole entry): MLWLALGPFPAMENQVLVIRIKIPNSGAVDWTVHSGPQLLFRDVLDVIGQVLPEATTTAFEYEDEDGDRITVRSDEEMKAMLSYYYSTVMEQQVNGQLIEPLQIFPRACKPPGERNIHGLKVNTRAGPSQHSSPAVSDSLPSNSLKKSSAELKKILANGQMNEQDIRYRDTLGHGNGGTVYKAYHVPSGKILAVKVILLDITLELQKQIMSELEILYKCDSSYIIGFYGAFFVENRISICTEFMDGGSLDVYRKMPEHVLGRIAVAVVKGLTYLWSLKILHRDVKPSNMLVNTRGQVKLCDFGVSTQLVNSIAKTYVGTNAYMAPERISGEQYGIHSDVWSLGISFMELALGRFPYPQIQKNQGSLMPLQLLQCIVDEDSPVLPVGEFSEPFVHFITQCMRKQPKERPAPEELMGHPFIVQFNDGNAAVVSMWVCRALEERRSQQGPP

## Cc1cn(CCN2CCN(c3ccccc3-c3cc(C#N)cc(C(=O)NCCCN4CCCC4)c3)CC2)c2ccccc12 [LLY-507, 3-cyano-5-{2-[4-[2-(3-methylindol-1-yl)ethyl]piperazin-1-yl]-phenyl}-N-[(3-pyrrolidin-1-yl)propyl]benzamide]
hSTK36
  IC50: > 20 µM
hKIT(V559D,T670I)
  IC50: > 20 µM
hBTK
  IC50: > 20 µM
hROCK2
  IC50: > 20 µM
hVDR
  IC50: > 10 µM
hEGFR(L861Q)
  IC50: > 20 µM
hHIPK1
  IC50: > 20 µM
hFLT3(N841I)
  IC50: > 20 µM
hMEK5
  IC50: > 20 µM
hCDKL2
  IC50: > 20 µM
hADRβ2
  % Effect, Potentiation: -27.2%
hMAPKAPK5
  IC50: > 20 µM
hCLK4
  IC50: > 20 µM
hMLCK
  IC50: > 20 µM
hMEK2
  IC50: > 20 µM
hHIPK3
  IC50: > 20 µM
h5HT2B
  inhibition at 10 µM: 6.8%
hRARα
  IC50: > 10 µM
[1]
  change in lysine methylation of histone H3 or H4: did not show any significant change
hSIK2
  IC50: > 20 µM
hERK8
  IC50: > 20 µM
hFLT3(K663Q)
  IC50: > 20 µM
hSIK
  IC50: > 20 µM
hABL1(pM351T)
  IC50: > 20 µM
hBUB1
  IC50: > 20 µM
hTNNI3K
  IC50: > 20 µM
hLCK
  IC50: > 20 µM
hMERTK
  IC50: > 20 µM
hFGFR2
  IC50: > 20 µM
hKIT(V559D)
  IC50: > 20 µM
hMEK4
  IC50: > 20 µM
hBMPR1B
  IC50: > 20 µM
hJAK3(JH1Dom.-catalytic)
  IC50: > 20 µM
hD2L
  % Effect, Stimulation: 10.1%
hSTK39
  IC50: > 20 µM

— publication PMC4447944 (The Journal of Biological Chemistry, 2015)
